Data taken from the supplement of paper PMC11451515.

Test system: P12-Ichikawa
Assay: cell viability relative to DMSO control; higher = less cytotoxic
Conditions: 48 h
In short: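 NOMO1 or SEM cells were plated at 500 cells/well and P12-Ichikawa cells at 1000 cells/well in 1536-well plates (5 μl), after each leukemia line had been adapted for at least four passages in each medium. Pin dosing delivered library compounds in DMSO at 11 threefold concentrations, 47 μM to 0.79 nM. CellTiter-Glo One luminescence was read after 48 h at 37°C. Viability is reported as a per-plate percentage of DMSO wells, with cell-free wells as background.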

[1] = HPLM + 10% dialyzed FBS, 0.000781 µM
[2] = HPLM + 10% dialyzed FBS, 0.00234 µM
[3] = HPLM + 10% dialyzed FBS, 0.00702 µM
[4] = HPLM + 10% dialyzed FBS, 0.0211 µM
[5] = HPLM + 10% dialyzed FBS, 0.0632 µM
[6] = HPLM + 10% dialyzed FBS, 0.19 µM
[7] = HPLM + 10% dialyzed FBS, 0.569 µM
[8] = HPLM + 10% dialyzed FBS, 1.71 µM
[9] = HPLM + 10% dialyzed FBS, 5.12 µM
[10] = HPLM + 10% dialyzed FBS, 15.4 µM
[11] = HPLM + 10% dialyzed FBS, 46.1 µM
[12] = RPMI 5 mM glucose + 10% FBS, 0.000781 µM
[13] = RPMI 5 mM glucose + 10% FBS, 0.00234 µM
[14] = RPMI 5 mM glucose + 10% FBS, 0.00702 µM
[15] = RPMI 5 mM glucose + 10% FBS, 0.0211 µM
[16] = RPMI 5 mM glucose + 10% FBS, 0.0632 µM
[17] = RPMI 5 mM glucose + 10% FBS, 0.19 µM
[18] = RPMI 5 mM glucose + 10% FBS, 0.569 µM
[19] = RPMI 5 mM glucose + 10% FBS, 1.71 µM
[20] = RPMI 5 mM glucose + 10% FBS, 5.12 µM
[21] = RPMI 5 mM glucose + 10% FBS, 15.4 µM
[22] = RPMI 5 mM glucose + 10% FBS, 46.1 µM
[23] = RPMI 5 mM glucose + 10% dialyzed FBS, 0.000781 µM
[24] = RPMI 5 mM glucose + 10% dialyzed FBS, 0.00234 µM
[25] = RPMI 5 mM glucose + 10% dialyzed FBS, 0.00702 µM
[26] = RPMI 5 mM glucose + 10% dialyzed FBS, 0.0211 µM
[27] = RPMI 5 mM glucose + 10% dialyzed FBS, 0.0632 µM
[28] = RPMI 5 mM glucose + 10% dialyzed FBS, 0.19 µM
[29] = RPMI 5 mM glucose + 10% dialyzed FBS, 0.569 µM
[30] = RPMI 5 mM glucose + 10% dialyzed FBS, 1.71 µM
[31] = RPMI 5 mM glucose + 10% dialyzed FBS, 5.12 µM
[32] = RPMI 5 mM glucose + 10% dialyzed FBS, 15.4 µM
[33] = RPMI 5 mM glucose + 10% dialyzed FBS, 46.1 µM

SMILES	cell viability [1] [%]	cell viability [2] [%]	cell viability [3] [%]	cell viability [4] [%]	cell viability [5] [%]	cell viability [6] [%]	cell viability [7] [%]	cell viability [8] [%]	cell viability [9] [%]	cell viability [10] [%]	cell viability [11] [%]	cell viability [12] [%]	cell viability [13] [%]	cell viability [14] [%]	cell viability [15] [%]	cell viability [16] [%]	cell viability [17] [%]	cell viability [18] [%]	cell viability [19] [%]	cell viability [20] [%]	cell viability [21] [%]	cell viability [22] [%]	cell viability [23] [%]	cell viability [24] [%]	cell viability [25] [%]	cell viability [26] [%]	cell viability [27] [%]	cell viability [28] [%]	cell viability [29] [%]	cell viability [30] [%]	cell viability [31] [%]	cell viability [32] [%]	cell viability [33] [%]
Cn1c(CNc2ccc(C(=N)N)cc2)nc2cc(C(=O)N(CCC(=O)O)c3ccccn3)ccc21	96.7	102	107	109	105	114	104	109	117	113	114	100	118	120	118	123	113	122	128	115	110	120	97.3	111	112	110	115	110	109	120	112	105	112
CNC[C@H](O)c1ccc(O)c(O)c1	96.9	101	94.8	94.6	102	93.9	90.2	90.9	91.7	85.7	85.8	102	97.3	88.6	99.3	97.9	94.9	91.7	89.5	93.5	89.6	89.9	87.9	92.6	91	87.3	90.6	92.3	81.9	85.1	82	78.9	78.2
CC(N)C12CC3CC(CC(C3)C1)C2 (stereo not given)	105	108	111	117	124	109	111	114	110	99.1	8.72	103	113	101		123	118	112	112	111	117	13.2	105	106	115	101	112	110	108	125	108	105	18.8
CN1C[C@H]2c3ccccc3Oc3ccc(Cl)cc3[C@@H]2C1	88.5	86.3	83.8	90.2	89.7	96.8	92.5	96	91.4	93	95.8	96.9	94.5	95.6	97.8	88.4	95.4	98.2	99	96.7	103	101	87.6	89.7	82.3	87.6	87.5	96.6	87	84.5	80	84.3	78.1
COc1cc2c(cc1OC)CC(=O)N(CCCN(C)C[C@H]1Cc3cc(OC)c(OC)cc31)CC2.Cl	108	111	111	108	104	120	113	114	116	108	106	97.5	106	115	113	109	111	110	102	109	104	106	104	104	114	115	113	111	102	97.3	108	98.1	100
CC(C)CC(=O)N[C@H](C(=O)N[C@H](C(=O)N[C@@H](CC(C)C)[C@@H](O)CC(=O)N[C@@H](C)C(=O)N[C@@H](CC(C)C)[C@@H](O)CC(=O)O)C(C)C)C(C)C	103	103	107	108	105	114	118	116	105	111	97.9	108	109	121	109	97.6	113	105	113	122	103	108	98.1	99.7	106	102	96.6	103	107	111	102	97.6	96
C[C@@H]\1CC(=O)N\N=C1C2=CC=C(NN=C(C#N)C#N)C=C2	91.5	92.9	94.3	94.4	95.7	92.8	93.5	87.5	91.3	86.3	29.4	88.1	93.2	92.2	89.5	93.9	92.4	96.7	91.1	93.4	81.1	15.6	81.2	85.7	88.2	92.3	92.3	90.9	91.3	80.1	83.7	72.9	12.8
CNC(=O)c1ccc(N2C(=S)N(c3ccc(C#N)c(C(F)(F)F)c3)C(=O)C23CCC3)cc1F	86.5	92.3	101	9.68	108	101	97	103	103	107	102	88	86.8	101	13.1	94.9	98	102	99.6	99.3	103	106	75.4	87.7	88.6	24.7	97.7	96.6	92.7	91	97.8	96.7	98.5
C[N]1C=C(C2=C1C=CC=C2)\C3=C(\C(=O)NC3=O)C4=C5CC(CN)CC[N]5C6=C4C=CC=C6 (stereo not given)	103	105	106	113	98	116	110	108	106	84.2	60.3	97.2	108	101	111	90.5	117	120	115	94.6	66.2	45	119	116	119	113	113	129	129	119	109	83.4	45.7
Cc1cc(C(C)(C)C)c(O)c(C)c1CC1=NCCN1	96.4	98.3	105	98.3	100	104	110	96.6	97.5	71.1	69.5	92.6	98.5	98.5	106	99.2	96.6	99.1	93.8	103	63.7	60.5	89.8	89	94.4	95.5	94.5	104	97.9	105	98.7	53.8	48.9
CCN1\C=C(\C(O)=O)C(=O)C2=CC=C(C)N=C12	88.3	93.8	101	96.3	101	93.7	105	97.6	95.7	105	93.6	79.7	82.3	90	90.1	84.6	89.3	89.7	90.6	88.8	98.8	97	77.2	90.6	87.1	91	96	88.6	86.4	87.4	91.3	92.4	90.1
NC(=O)c1ccc(I)c([N+](=O)[O-])c1	117	126	124	115	130	139	133	134	132	128	125																						
O=C(Nc1cc2cc[nH]c2cn1)c1ccccc1	95	90.7	109	112	113	109	111	106	5.06	1.54	-0.599	93.1	113	111	114	119	130	109	104	90.4	45.8	1.1	79.4	101	102	104	99.7	102	103	101	58.2	7.54	1.18
C[C@@H]1[C@H](O)[C@@H](C)/C=C/C=C/C=C/C=C/C=C/C=C/C=C/[C@H](O[C@@H]2O[C@H](C)[C@@H](O)[C@H](N)[C@@H]2O)C[C@@H]2O[C@](O)(C[C@@H](O)C[C@@H](O)[C@H](O)CC[C@@H](O)C[C@@H](O)CC(=O)O[C@H]1C)C[C@H](O)[C@H]2C(=O)O	105	118	117	124	121	126	121	129	119	127	118	119	112	118	110	119	123	134	127	122	125	123	98.6	113	119	110	130	116	123	124	124	115	124
NC/1=N/C2=C([NH]C=N2)C(=S)N1	113	122	116	123	123	121	120	119	98.2	94.2	28.9	119	120	124	116	131	130	116	119	96	88.1	21.2	105	117	124	122	125	112	118	110	79	59.7	11.1
C[C@]1(c2nc3c(C(N)=O)cccc3[nH]2)CCCN1	78.7	83.9	79.3	88.8	82.2	87.2	88.4	83.2	81.3	89.5	72.4	70.9	78.2	74.9	82.6	82.9	72.9	77.7	72.4	83.3	80.4	5.38	78.1	74.3	74.3	81.4	83.5	76.9	79	81.6	72.8	82.1	2.96
